Data set [1] is described as follows: Vmax, rel (FPGS substrate activity) for recombinant human FPGS. The format is ADME.
Data set [2] has as its target Thymidylate synthase (Escherichia coli, UniProt C3SWJ7). Put plainly: Inhibition of Escherichia coli thymidylate synthetase at 37 degree C pH 7.4.
The subject of a further data set is SR. Briefly: Cytotoxicity of compound against SR leukemia cell line. The note with it: Homo sapiens. The format is functional.
The target in data set [3] is T1, Thymidylate synthase (Lactobacillus casei, UniProt P00469).
T1 sequence (P00469 whole entry): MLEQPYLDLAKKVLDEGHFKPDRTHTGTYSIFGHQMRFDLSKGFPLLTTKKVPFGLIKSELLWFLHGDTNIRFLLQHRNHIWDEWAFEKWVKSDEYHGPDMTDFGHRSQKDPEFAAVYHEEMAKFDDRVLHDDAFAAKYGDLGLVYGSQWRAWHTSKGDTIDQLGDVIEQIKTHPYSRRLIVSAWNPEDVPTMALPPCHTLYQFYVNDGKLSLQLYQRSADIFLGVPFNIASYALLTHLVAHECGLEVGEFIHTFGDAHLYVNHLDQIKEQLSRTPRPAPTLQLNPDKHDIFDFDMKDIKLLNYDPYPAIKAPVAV
Put plainly: Inhibition of Lactobacillus casei thymidylate synthetase at 37 degree C pH 7.4. Further details: species or system Lacticaseibacillus casei.

Data set [4] concerns CCRF-CEM. Put plainly: Growth inhibitory activity against CCRF-CEM human lymphoblastic leukemia cells. The data set is classed as functional, cell-based.
Data set [5] concerns CCRF-CEM. Briefly: Growth inhibitory activity against resistant CCRF-CEM human lymphoblastic leukemia cells with decreased uptake of MTX. The format is functional, cell-based.
A further data set relates to HL-60. Put plainly: Cytotoxicity of compound aganist HL-60 leukemia cell line. The data set is classed as functional. The note with it: Homo sapiens.
A short description of data set [6]: Ratio of Vmax, rel to Km (FPGS substrate activity) for recombinant human FPGS. The format is ADME.
In data set [7] the test system is CCRF-CEM. Put plainly: Growth inhibitory activity against MTX resistant subline of CCRF-CEM human lymphoblastic leukemia cells. The data set is classed as functional, cell-based.
Data set [8] concerns CCRF-CEM. Put plainly: Protection of CCRF-CEM human leukemia cells against the growth inhibitory effect of MTX by 10 uM of hypoxanthine at 5000 nM concentration of compound. The format is functional.
Data set [9] has as its system CCRF-CEM. Put plainly: Growth inhibitory activity against MTX resistant CCRF-CEM human lymphoblastic leukemia cells with decreased polyglutamylation. The data set is classed as functional, cell-based.
For data set [10], the system named is CCRF-CEM. Put plainly: Protection of CCRF-CEM human leukemia cells against the growth inhibitory effect of MTX by 5 uM of thymidine at 5000 nM concentration of compound. The format is functional.
The test system of data set [11] is CCRF-CEM. Briefly: Protection of CCRF-CEM human leukemia cells against the growth inhibitory effect of MTX by 10 uM of hypoxanthine and 5 uM of thymidine at 5000 nM concentration of compound. The data set is classed as functional.
The target of data set [12] is T2, Dihydrofolate reductase (Homo sapiens, UniProt P00374).
T2 sequence (P00374 whole entry): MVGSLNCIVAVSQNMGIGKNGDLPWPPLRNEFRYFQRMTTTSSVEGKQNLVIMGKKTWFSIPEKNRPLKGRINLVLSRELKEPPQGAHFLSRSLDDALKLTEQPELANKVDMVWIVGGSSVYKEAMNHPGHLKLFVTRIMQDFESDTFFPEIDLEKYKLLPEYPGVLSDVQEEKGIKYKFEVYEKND
Description: Inhibition of human dihydrofolate reductase at 37 degree C pH 7.4

For data set [13], the target named is Dihydrofolate reductase (Lactobacillus casei, UniProt P00381).
Description: Inhibition of Lactobacillus casei dihydrofolate reductase at 37 degree C pH 7.4
A further data set deals with SW-620. Briefly: Cytotoxicity of compound against SW-620 colon cancer cell line. The data set is classed as functional. The note with it: Homo sapiens.
Another data set deals with K562. Put plainly: Cytotoxicity of compound against […] leukemia cell line. The data set is classed as functional. The conditions noted are these: Homo sapiens.
In data set [14] the target is T3, Dihydrofolate reductase (Escherichia coli, UniProt P0ABQ4).
T3 sequence (P0ABQ4 whole entry): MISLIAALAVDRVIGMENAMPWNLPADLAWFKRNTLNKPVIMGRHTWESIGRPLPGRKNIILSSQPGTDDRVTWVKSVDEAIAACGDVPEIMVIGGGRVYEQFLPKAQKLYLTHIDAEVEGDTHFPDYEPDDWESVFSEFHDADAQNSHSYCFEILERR
Description: Inhibition of Escherichia coli dihydrofolate reductase at 37 degree C pH 7.4

The target in data set [15] is Thymidylate synthase (Homo sapiens, UniProt P04818). Put plainly: Inhibition of human thymidylate synthetase at 37 degree C pH 7.4.
In a further data set the test system is 786-0. Briefly: Cytotoxicity of compound against 786-0 renal cancer cell line. The data set is classed as functional. The conditions noted are these: Homo sapiens.

Sequence of Thymidylate synthase (Escherichia coli, UniProt C3SWJ7) (C3SWJ7 whole entry): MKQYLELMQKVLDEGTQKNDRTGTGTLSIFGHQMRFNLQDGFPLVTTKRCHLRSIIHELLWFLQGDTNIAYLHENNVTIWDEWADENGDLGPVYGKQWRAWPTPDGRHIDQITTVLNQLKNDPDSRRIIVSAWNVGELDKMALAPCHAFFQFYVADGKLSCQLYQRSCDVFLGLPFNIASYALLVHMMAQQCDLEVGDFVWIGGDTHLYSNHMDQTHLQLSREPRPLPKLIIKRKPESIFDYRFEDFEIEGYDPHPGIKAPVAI
Sequence of Dihydrofolate reductase (Lactobacillus casei, UniProt P00381) (P00381 whole entry): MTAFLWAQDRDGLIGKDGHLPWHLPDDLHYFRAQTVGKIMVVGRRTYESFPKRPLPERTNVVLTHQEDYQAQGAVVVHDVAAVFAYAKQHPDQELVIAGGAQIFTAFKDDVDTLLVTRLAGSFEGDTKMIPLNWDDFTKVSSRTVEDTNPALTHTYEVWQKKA
Sequence of Thymidylate synthase (Homo sapiens, UniProt P04818) (P04818 whole entry): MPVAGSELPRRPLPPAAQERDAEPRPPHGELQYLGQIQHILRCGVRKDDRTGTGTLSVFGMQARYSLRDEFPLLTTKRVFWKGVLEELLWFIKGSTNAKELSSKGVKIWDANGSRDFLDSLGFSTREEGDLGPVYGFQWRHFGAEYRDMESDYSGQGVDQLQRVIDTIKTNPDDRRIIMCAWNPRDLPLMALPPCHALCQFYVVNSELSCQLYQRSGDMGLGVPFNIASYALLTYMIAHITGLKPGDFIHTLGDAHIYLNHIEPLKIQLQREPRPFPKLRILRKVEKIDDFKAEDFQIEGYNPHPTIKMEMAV

For orientation: IC50 means the concentration that gives 50% inhibition. What is called GI50 is the concentration at which growth is held to half of that of the control. A low value points to more potent growth inhibition. One may read the EC50 as the concentration that produces a half-maximal response. Low readings indicate higher potency in that assay, high ones lower potency in that assay. In the case of `Nc1nc2[nH]c(CCCCc3ccc(C(=O)N[C@@H](CCC(=O)O)C(=O)O)cc3)cc2c(=O)[nH]1`, the Vmax rel in data set [1] amounted to 0.54. For the same compound, the IC50 against Thymidylate synthase [2] was above 170 µM; against Thymidylate synthase [3], above 100 µM; against Dihydrofolate reductase [12], above 20 µM; on Dihydrofolate reductase [13], above 110 µM; on Dihydrofolate reductase [14], 100 µM; at Thymidylate synthase [15], above 17 µM. The GI50 with SR was 0.609 µM; in the data set with HL-60, 6.56 µM; in the data set with SW-620 it was 3.81 µM; in the data set on K562 it was 0.398 µM; with 786-0, 0.898 µM. Further, the EC50 with CCRF-CEM [4] was found to be 1.1 µM; with CCRF-CEM [5] it was 8.1 µM; in the data set with CCRF-CEM [7], 3.05 µM; in the data set with CCRF-CEM [9], 18 µM. In data set [6], the Ratio is 0.086. Moreover, the Relative growth with CCRF-CEM [8] is reported as 85%; in the data set on CCRF-CEM [10], 18%; in the data set on CCRF-CEM [11], 85%.
On to `Nc1nc2[nH]c(CCCc3ccc(C(=O)N[C@@H](CCC(=O)O)C(=O)O)cc3)cc2c(=O)[nH]1`, for which the Vmax rel in [1] worked out at 0.57. Besides, the IC50 against Thymidylate synthase [2] was above 180 µM; against Thymidylate synthase [3], above 100 µM; at Dihydrofolate reductase [12], above 24 µM; at Dihydrofolate reductase [13], above 110 µM; on Dihydrofolate reductase [14] it was 22 µM; on Thymidylate synthase [15], above 17 µM. The EC50 was found to be 0.46 µM with CCRF-CEM [4], 4.35 µM in the data set on CCRF-CEM [5], 0.86 µM in the data set on CCRF-CEM [7] and 0.47 µM with CCRF-CEM [9]. The Ratio in data set [6] is recorded as 0.63.
By Ki is commonly meant a dissociation constant, usually derived from enzyme kinetics or from competition with a known ligand. A high value points to lower affinity. In turn, `Nc1nc2[nH]cc(CCc3ccc(C(=O)N[C@@H](CCC(=O)O)C(=O)O)cc3)c2c(=O)[nH]1` [PEMETREXED] came in with a Ki at Thymidylate synthase [15] of 0.34 µM.
`Nc1nc(N)c2c(CCCc3ccc(C(=O)N[C@@H](CCC(=O)O)C(=O)O)cc3)coc2n1`: the EC50 in the data set with CCRF-CEM [4] is 0.06 µM; in the data set on CCRF-CEM [5], 1.05 µM; with CCRF-CEM [7], at least 4.6 µM; in the data set with CCRF-CEM [9], 0.084 µM. At Dihydrofolate reductase [13], this compound returned an IC50 of 10 µM.
Consider `Nc1nc(N)c2nc(CNc3ccc(C(=O)N[C@@H](CCC(=O)O)C(=O)O)cc3)cnc2n1` [AMINOPTERIN], for which the Vmax rel in [1] is recorded as 1. The Ratio in [6] was 0.19.
The corresponding values for `Nc1nc(N)c2c(CCc3ccc(C(=O)N[C@@H](CCC(=O)O)C(=O)O)cc3)coc2n1` are 0.65 and 0.07.
For `Nc1nc(N)c2c(CCCCc3ccc(C(=O)N[C@@H](CCC(=O)O)C(=O)O)cc3)coc2n1`, in data set [1], the Vmax rel is on record as 0.54. Besides, the IC50 against Thymidylate synthase [2] was above 100 µM; against Thymidylate synthase [3] it was above 100 µM; at Dihydrofolate reductase [12] it was 21 µM; at Dihydrofolate reductase [13], 10 µM; on Dihydrofolate reductase [14], 21 µM; against Thymidylate synthase [15], above 18 µM. For the same compound, the GI50 was 0.0478 µM in the data set on SR; 0.0381 µM in the data set with HL-60; 0.0783 µM in the data set with SW-620; 0.214 µM with K562; above 100 µM in the data set with 786-0. Further, the EC50 with CCRF-CEM [4] is 0.12 µM; with CCRF-CEM [5] it was 0.265 µM; in the data set on CCRF-CEM [7], 4.85 µM; with CCRF-CEM [9], 3.15 µM. The Ratio in data set [6] came out at 0.27. For the same compound, the values for the Relative growth in the data set on CCRF-CEM [8], in the data set with CCRF-CEM [10] and with CCRF-CEM [11] were 21%, 20% and 74%, respectively.

Source of the values: ChEMBL document CHEMBL1141150, “Synthesis of classical, four-carbon bridged 5-substituted furo[2,3-d]pyrimidine and 6-substituted pyrrolo[2,3-d]pyrimidine analogues as antifolates” (J Med Chem, 2005).
